In brackets after ≈: the same amount, converted by molar mass. Activity calls are given as the source filed them. No cut-off for these calls is given here.
Experiments:
Staphylococcus aureus [1] = assay: Antimicrobial activity against methicillin-resistant Staphylococcus aureus by broth microdilution method; type: functional
NCI/ADR-RES = assay: Cytotoxicity against human NCI/ADR-RES cells at 5 ug/ml after 2 to 3 days by MTT assay; type: functional, cell-based
Candida albicans [2] = assay: Antimicrobial activity against Candida albicans by broth microdilution method; type: functional
PANC-1 = assay: Cytotoxicity against human PANC1 cells at 5 ug/ml after 2 to 3 days by MTT assay; type: functional, cell-based
Candida albicans [3] = assay: Antimicrobial activity against Candida albicans up to 50 ug/ml by broth microdilution method; type: functional, organism-based
Staphylococcus aureus [4] = assay: Antimicrobial activity against methicillin-resistant Staphylococcus aureus up to 50 ug/ml by broth microdilution method; type: functional, organism-based

Row | Structure (SMILES) | MIC (Staphylococcus aureus [1]) [mg/L] | Activity (NCI/ADR-RES) | MIC (Candida albicans [2]) [mg/L] | Activity (PANC-1) | growth inhibition (GI) (Candida albicans [3]) | growth inhibition (GI) (Staphylococcus aureus [4])
1 | Oc1cc2[nH]c3ccc4c5ccc(Br)cc5[nH]c4c3c2cc1O | 50 (≈ 136 µM) | inactive | 25 (≈ 68.1 µM) | inactive |  | 
2 | O=S(=O)(O)Oc1cc2[nH]c3ccc4c5ccc(Br)cc5[nH]c4c3c2cc1O |  | inactive |  | inactive | inactive | inactive
